From US20220411471A1, “CELL-PERMEABLE CYCLIC PEPTIDES AND USES THEREOF” (Unnatural Products Inc., priority 2019, published 2022) come the findings set out here.

Non-standard residues stand in square brackets, D forms with d. Residues, ends and D or L forms follow the SMILES beside them. Phe(4-Cl) = N[C@@H](Cc1ccc(Cl)cc1)C(=O)O; Phe(3-F) = N[C@@H](Cc1cccc(F)c1)C(=O)O; Phe(4-F) = N[C@@H](Cc1ccc(F)cc1)C(=O)O; 3Pal = N[C@@H](Cc1cccnc1)C(=O)O; 2Thi = N[C@@H](Cc1cccs1)C(=O)O; NMeL = CN[C@@H](CC(C)C)C(=O)O; dNMeV = CN[C@@H](C(=O)O)C(C)C; Tle = CC(C)(C)[C@H](N)C(=O)O; dPip = O=C(O)[C@H]1CCCCN1; NMeA = CN[C@@H](C)C(=O)O; Nme = COCCNCC(=O)O Bounds are passed on as bounds.

This experiment has as its target T1, Human MDM2 (HDM2) 1-116 (Homo sapiens, UniProt Q00987).
T1 construct: Human MDM2 (HDM2) 1-116
Description: Fluorescence polarization assay, MDM2/p53 (Table 3). The experiment is classed as binding. The procedure: (§1) Human MDM2 (HDM2) 1-116 (20 μL) and FITC-labeled p53 (18-26), 50 nM and 10 nM respectively in 10 mM Tris, 50 mM NaCl, 0.01% Tween20, and 1 mM DTT at pH 7.4 were dispensed into an opaque, black, 384 well plate. Compounds dissolved in DMSO were pin transferred (˜200 nL) to the 384 well plate containing the MDM2/p53 solution. After incubation for 10 minutes, the fluorescence polarization was read on a Molecular Devices SpectraMax plate reader equipped with a Fluorescein FP cartridge. In addition to probe alone (positive control) and probe/MDM2 (negative control), a titration of linear p53(18-26) was included on every plate as an additional control. IC50 values were fit using either Prism or Collaborative Drug Discovery.
as §1, with “and FAM-labeled RFMDYWEGL-NH2,” for “and FITC-labeled p53 (18-26),”, “NaCl, 0.010%” for “NaCl, 0.01%”, “transferred (˜100-200” for “transferred (˜200”, “for 60” for “for 10”
(Fluorescence polarisation rises when a labelled molecule tumbles more slowly, as on binding a larger partner.)

T1 sequence (Q00987 1-116): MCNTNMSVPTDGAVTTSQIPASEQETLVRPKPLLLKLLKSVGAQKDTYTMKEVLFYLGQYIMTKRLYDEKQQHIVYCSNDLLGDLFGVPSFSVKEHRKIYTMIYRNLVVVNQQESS

As a reminder, the IC50 is the concentration at which inhibition is half-maximal. Low values mean greater potency in that assay, high ones weaker potency in that assay. The compound `C[C@H]1C(=O)N[C@@H](Cc2ccc(Cl)cc2)C(=O)N2CCCC[C@@H]2C(=O)N2CCC[C@H]2C(=O)N[C@@H](Cc2ccc(O)cc2)C(=O)N[C@@H](CCC(=O)O)C(=O)N[C@@H](Cc2cccnc2)C(=O)N2CCC[C@@H]2C(=O)N(C)[C@@H](C)C(=O)N[C@@H](Cc2ccc(F)cc2)C(=O)N1C` [Compound 15, [H]OC(=O)CC[C@@H]1NC(=O)[C@H](Cc2ccc(O[H])cc2)NC(=O)[C@@H]2CCCN2C(=O)[C@H]2CCCCN2C(=O)[C@H](Cc2ccc(Cl)cc2)NC(=O)[C@H](C)N(C)C(=O)[C@H](Cc2ccc(F)cc2)NC(=O)[C@H](C)N(C)C(=O)[C@H]2CCCN2C(=O)[C@H](Cc2cccnc2)NC1=O] (cyclo([3Pal][dP][NMeA][Phe(4-F)][NMeA][Phe(4-Cl)][dPip]PYE)) registered an IC50 of 1 to 2.5 µM.

`C[C@H]1C(=O)N[C@@H](Cc2ccc(Cl)cc2)C(=O)N2CCCC[C@@H]2C(=O)N2CCC[C@H]2C(=O)N[C@@H](Cc2ccccc2)C(=O)N[C@@H](CCC(=O)O)C(=O)N[C@@H](Cc2ccc(O)cc2)C(=O)N2CCC[C@@H]2C(=O)N(C)[C@@H](C)C(=O)N[C@@H](Cc2ccc(F)cc2)C(=O)N1C` [Compound 8, [H]OC(=O)CC[C@@H]1NC(=O)[C@H](Cc2ccccc2)NC(=O)[C@@H]2CCCN2C(=O)[C@H]2CCCCN2C(=O)[C@H](Cc2ccc(Cl)cc2)NC(=O)[C@H](C)N(C)C(=O)[C@H](Cc2ccc(F)cc2)NC(=O)[C@H](C)N(C)C(=O)[C@H]2CCCN2C(=O)[C@H](Cc2ccc(O[H])cc2)NC1=O] (cyclo(EY[dP][NMeA][Phe(4-F)][NMeA][Phe(4-Cl)][dPip]PF)): the IC50 lay within 2.5 to 5 µM.

For the compound `CC(C)C[C@@H]1NC(=O)[C@H](Cc2c[nH]c3ccccc23)NC(=O)[C@H](CCC(=O)O)NC(=O)[C@H](Cc2ccccc2)NC(=O)[C@@H]2CCCN2C(=O)[C@H]2CCCN2C(=O)[C@H](Cc2ccccc2)NC(=O)[C@H](CCC(=O)O)NC(=O)[C@H](Cc2c[nH]c3ccccc23)NC(=O)[C@H](CC(=O)O)NC1=O` [Compound 2, [H]OC(=O)CC[C@@H]1NC(=O)[C@H](Cc2cn([H])c3ccccc23)NC(=O)[C@H](CC(=O)O[H])NC(=O)[C@H](CC(C)C)NC(=O)[C@H](Cc2cn([H])c3ccccc23)NC(=O)[C@H](CCC(=O)O[H])NC(=O)[C@H](Cc2ccccc2)NC(=O)[C@@H]2CCCN2C(=O)[C@H]2CCCN2C(=O)[C@H](Cc2ccccc2)NC1=O] (cyclo(FEWLDWEF[dP]P)), the IC50 lay in the range of 1 to 2.5 µM.

Take `CC(C)C[C@H]1C(=O)N[C@@H](CC(=O)O)C(=O)N[C@@H](Cc2ccc(F)cc2)C(=O)N[C@@H](CCC(=O)O)C(=O)N[C@@H](Cc2ccccc2)C(=O)N2CCC[C@@H]2C(=O)N2CCC[C@H]2C(=O)N[C@@H](Cc2cccs2)C(=O)N[C@@H](CCC(=O)O)C(=O)N[C@@H](Cc2c[nH]c3ccccc23)C(=O)N1C` [Compound 5, [H]OC(=O)CC[C@@H]1NC(=O)[C@H](Cc2cccs2)NC(=O)[C@@H]2CCCN2C(=O)[C@H]2CCCN2C(=O)[C@H](Cc2ccccc2)NC(=O)[C@H](CCC(=O)O[H])NC(=O)[C@H](Cc2ccc(F)cc2)NC(=O)[C@H](CC(=O)O[H])NC(=O)[C@H](CC(C)C)N(C)C(=O)[C@H](Cc2cn([H])c3ccccc23)NC1=O] (cyclo([2Thi]EW[NMeL]D[Phe(4-F)]EF[dP]P)): the IC50 was less than 1 µM.

In the case of `COCCN1CC(=O)N(C)[C@@H](C)C(=O)N[C@@H](Cc2ccc(F)cc2)C(=O)N(C)[C@@H](C)C(=O)N[C@@H](Cc2ccc(Cl)cc2)C(=O)N2CCCC[C@@H]2C(=O)N2CCC[C@H]2C(=O)N[C@@H](Cc2ccccc2)C(=O)N[C@@H](C(C)(C)C)C(=O)N[C@@H](Cc2cccc(F)c2)C1=O` [Compound 22, COCCN1CC(=O)N(C)[C@@H](C)C(=O)N[C@@H](Cc2ccc(F)cc2)C(=O)N(C)[C@@H](C)C(=O)N[C@@H](Cc2ccc(Cl)cc2)C(=O)N2CCCC[C@@H]2C(=O)N2CCC[C@H]2C(=O)N[C@@H](Cc2ccccc2)C(=O)N[C@H](C(=O)N[C@@H](Cc2cccc(F)c2)C1=O)C(C)(C)C] (cyclo(F[Tle][Phe(3-F)][Nme][NMeA][Phe(4-F)][NMeA][Phe(4-Cl)][dPip]P)), the IC50 is 1 to 2.5 µM.

Turning to `C[C@H]1C(=O)N[C@@H](Cc2cccnc2)C(=O)N2CCC[C@@H]2C(=O)N(C)[C@@H](C)C(=O)N[C@@H](Cc2ccc(F)cc2)C(=O)N[C@@H](C(C)(C)C)C(=O)N[C@@H](Cc2ccc(Cl)cc2)C(=O)N2CCCC[C@@H]2C(=O)N2CCC[C@H]2C(=O)N[C@@H](Cc2ccccc2)C(=O)N1C` [Compound 26, C[C@@H]1N(C)C(=O)[C@H]2CCCN2C(=O)[C@H](Cc2cccnc2)NC(=O)[C@H](C)N(C)C(=O)[C@H](Cc2ccccc2)NC(=O)[C@@H]2CCCN2C(=O)[C@H]2CCCCN2C(=O)[C@H](Cc2ccc(Cl)cc2)NC(=O)[C@@H](NC(=O)[C@H](Cc2ccc(F)cc2)NC1=O)C(C)(C)C] (cyclo([3Pal][dP][NMeA][Phe(4-F)][Tle][Phe(4-Cl)][dPip]PF[NMeA])), the IC50 was less than 1 µM.

Compound `COCCN1CC(=O)N(C)[C@@H](C)C(=O)N[C@@H](Cc2ccc(F)cc2)C(=O)N(C)[C@@H](C)C(=O)N[C@@H](Cc2ccc(Cl)cc2)C(=O)N(C)[C@H](C(C)C)C(=O)N2CCC[C@H]2C(=O)N[C@@H](Cc2ccccc2)C(=O)N[C@@H](C(C)(C)C)C(=O)N[C@@H](Cc2cccnc2)C1=O` [Compound 23, COCCN1CC(=O)N(C)[C@@H](C)C(=O)N[C@@H](Cc2ccc(F)cc2)C(=O)N(C)[C@@H](C)C(=O)N[C@@H](Cc2ccc(Cl)cc2)C(=O)N(C)[C@H](C(C)C)C(=O)N2CCC[C@H]2C(=O)N[C@@H](Cc2ccccc2)C(=O)N[C@H](C(=O)N[C@@H](Cc2cccnc2)C1=O)C(C)(C)C] (cyclo([3Pal][Nme][NMeA][Phe(4-F)][NMeA][Phe(4-Cl)][dNMeV]PF[Tle])) had an IC50 of less than 1 µM.

In turn, `C[C@H]1C(=O)N[C@@H](Cc2ccc(Cl)cc2)C(=O)N2CCCC[C@@H]2C(=O)N2CCC[C@H]2C(=O)N[C@@H](Cc2ccccc2)C(=O)N[C@@H](C(C)(C)C)C(=O)N[C@@H](Cc2ccc(O)cc2)C(=O)N2CCC[C@@H]2C(=O)N(C)[C@@H](C)C(=O)N[C@@H](Cc2ccc(F)cc2)C(=O)N1C` [Compound 10, [H]Oc1ccc(C[C@@H]2NC(=O)[C@@H](NC(=O)[C@H](Cc3ccccc3)NC(=O)[C@@H]3CCCN3C(=O)[C@H]3CCCCN3C(=O)[C@H](Cc3ccc(Cl)cc3)NC(=O)[C@H](C)N(C)C(=O)[C@H](Cc3ccc(F)cc3)NC(=O)[C@H](C)N(C)C(=O)[C@H]3CCCN3C2=O)C(C)(C)C)cc1] (cyclo(F[Tle]Y[dP][NMeA][Phe(4-F)][NMeA][Phe(4-Cl)][dPip]P)) yielded an IC50 of 1 to 2.5 µM.

In turn, `COCCN1CC(=O)N[C@@H](Cc2ccc(Cl)cc2)C(=O)N2CCCC[C@@H]2C(=O)N2CCC[C@H]2C(=O)N[C@@H](Cc2ccccc2)C(=O)N[C@@H](C(C)(C)C)C(=O)N[C@@H](Cc2cccnc2)C(=O)N2CCC[C@@H]2C(=O)N(C)[C@@H](C)C(=O)N[C@@H](Cc2ccc(F)cc2)C1=O` [Compound 18, COCCN1CC(=O)N[C@@H](Cc2ccc(Cl)cc2)C(=O)N2CCCC[C@@H]2C(=O)N2CCC[C@H]2C(=O)N[C@@H](Cc2ccccc2)C(=O)N[C@H](C(=O)N[C@@H](Cc2cccnc2)C(=O)N2CCC[C@@H]2C(=O)N(C)[C@@H](C)C(=O)N[C@@H](Cc2ccc(F)cc2)C1=O)C(C)(C)C] (cyclo([3Pal][dP][NMeA][Phe(4-F)][Nme][Phe(4-Cl)][dPip]PF[Tle])) yielded an IC50 of less than 1 µM.
